For one assay, the system named is Pah^enu2 mice. As to the kind of experiment: Plasma Phe in Pah^enu2 mice after JN-170. The class given is in vivo, mouse. The method, then:
Male homozygous BTBR-Pah<enu2>/J (Pah^enu2) aged 10–13 weeks were purchased from Jackson Laboratory (no. 002232). Immediately before dosing, each animal’s bladder was manually emptied and a plasma sample was drawn. Animals were dosed by oral gavage with vehicle (10% DMSO, 20% 2-hydroxypropyl-β-cyclodextrin [Sigma-Aldrich]) followed by a 1-week washout prior to dosing with JN-170 at doses ranging from 50 to 250 mg/kg. Following dosing with vehicle or JN-170, animals were individually placed in metabolic cages to collect urine samples. After collection of each urine sample, cages were rinsed with ultra-pure water to recover residual analytes. Blood samples were collected predose as well as 1, 3, 8, 12, and 24 hours after dosing with vehicle or JN-170 into tubes with EDTA as a […], and plasma was separated by centrifuging samples at 2,200g for 5 minutes at 4°C. Throughout the study, mice had access to food and water ad libitum. Plasma and urine samples were stored at –80°C until processing.Ten-week-old male WT C57Bl/6J animals (Si Bei Fu Laboratory Animal Technology Co. Ltd.) were dosed either with vehicle or 50–250 mg/kg JN-170 by oral gavage and blood and urine samples were collected as described. All animals had unrestricted access to food and water during the study; C57Bl/6J were kept on rodent maintenance diet from Beijing Keao Xieli, Pah^enu2 mice were kept on Teklad diet no. T.2018.
Plasma sample analyses were carried out by liquid chromatography tandem mass spectrometry (LC-MS/MS). Plasma samples were mixed 1:1 with carbamazepine or ^13C6-Phe as internal standards for JN-170 and Phe, respectively. Plasma proteins were precipitated by adding 4 volumes of acetonitrile (ACN) and 0.1% formic acid (FA) followed by centrifugation for 5 minutes at 2,100g. Supernatants were diluted 1:1 in ACN and 0.1% FA. For JN-170, a Waters HSS T3 reversed phase column was used for separation using a binary gradient of 0.1% FA in water (mobile phase A) to 0.1% in ACN (mobile phase B). At a flow rate of 0.8 mL/min, the mobile phase gradient increased from an initial 25% phase B to 95% phase B over 30 seconds. After, 1.5 minutes, the gradient was returned to 25% mobile phase B. For detection of Phe, an Acquity UPLC ethylene bridged hybrid (BEH) amide column was used, with a binary gradient of 10 mM ammonium acetate in 95:5:1 H2O:ACN:FA (mobile phase A) to 10 mM ammonium acetate in 95:5:1 ACN:H2O:FA (mobile phase B). At a flow rate of 0.5 mL/min, the mobile phase gradient changed from an initial 100% phase B to 50% phase B over 2.1 minutes. It was returned to 100% phase B after 4 minutes. Analytes were detected using a Sciex API-5500 in multiple reaction monitoring mode using an electrospray ionization source in the positive ion mode with the following ion transitions: m/z 435.2/84.1 (JN-170), 237.1/194.1 (carbamazepine), 166.1/120.1 (Phe), 172.2/126.2 for (^13C6-Phe). Analyte concentrations were calculated with a 1/×^2 linear regression over a concentration range of 1 or 2 to 5,000 ng/mL for JN-170 and 0.05–100 ng/mL for Phe.
IC50 values for transport inhibition in cells overexpressing SLC6A19 and TMEM27 were calculated using a 4-parameter logistic regression in Collaborative Drug Discovery (CDD). Reported IC50 values are geometric means of 4–6 independent experiments. For postmortem intestinal transport assays, single outliers of quadruplicate replicates were excluded from the calculation if a signal value’s distance to the mean exceeded 35% of the signal average. The IC50 values of individual experiments were calculated with a 3- or 4-parameter logistic regression using GraphPad Prism 9. The reported IC50 value represents the geometric mean of n = 5 experiments from 3 individual donors. Statistical comparison of urinary Phe excretion in Pah^enu2 mice treated with vehicle or JN-170 was conducted using 1-way analysis of variance (ANOVA) with Tukey’s post hoc comparison. […]

The next assay relates to T1, human SLC1A5.
T1 construct: V5; expressed in transfected cells; host or cells: Flp-In T-Rex 293 cells (Thermo Fisher), tetracycline-induced
As to the kind of experiment: SLC1A5 glutamine transport assay. The class given is cell-based. Particulars: for SLC1A5 transport (Fig S2 curve point): technical replicates. The procedure:
Supplementary Materials and Methods
Flp-In T-Rex 293 cells (Thermo Fisher) were engineered to induciblyexpress either V5-tagged human SLC1A5, SLC6A8 or SLC7A5 co-expressed with myc-DDK-tagged SLC3A2. Cells expressing SLC 1A5 or SLC6A8 were maintained in either DMEM or DMEM/F12 media supplemented with 10% FBS, 100 U/mL penicillin, 100 μg/mL streptomycin, 200 μg/mL hygromycin, and 10 μg/mL blasticidin. For cells expressing SLC7A5/SLC3A2, the media was additionally supplemented with 300 μg/mL geneticin. All cell lines were maintained at 37°C and 5% CO2. For transport experiments, all cell lines were plated in poly-D-lysine-coated 96-well plates at a density of 35,000 cells/well. One day after plating, expression of SLC1A5, SLC6A8 or SLC7A5 was induced by adding tetracycline at a concentration of 1 μg/mL. Cells were induced for 24 h prior to transport assays.
SLC1A5 glutamine transport assay
Following a 24 h induction with tetracycline, cells were washed with LCIS before JNT -517 was added in 8-point concentration-response diluted in live cell imaging solution. D -serine was used as a positive control (32)at aconcentration of 40 mM and 0.5% DMSO was used as a negative control. Cells were incubated for 20 min at room temperature and then placed on ice for an additional 5 minutes. Then, a mixture of unlabeled L-glutamine (Millipore Sigma) spiked with 4.5 μCi/mL 2,3,4- 3H-labeled L-glutamine (American Radiolabeled Chemicals) was added at a final concentration of 100 μM. After a 5 min incubation on ice, cells were washed once with ice - […]
cold LCIS and lysed in scintillation fluid (PerkinElmer). The uptake of radioactive substrate was measured on a Microbeta2 microplate counter (PerkinElmer). […]

Where “and” joins values, the source holds several entries; their conditions need not be identical. Equal values may be shown once. Bounds are passed on as bounds.

On to `N#Cc1ccc(-c2noc([C@]3(C(F)(F)F)CCN(C(=O)NCCC4(N)CC4)C3)n2)cc1` [JN-170], for which the “plasma Phe, mean ± SD” value was 984 ± 135 µM in the assay on Pah^enu2 mice (50 mg/kg, 3 hours); 1,119 ± 124 μM in the assay on Pah^enu2 mice (50 mg/kg, 12 hours); 764 ± 43 µM with Pah^enu2 mice (250 mg/kg, 3 hours); 648 ± 106 µM in the assay on Pah^enu2 mice (250 mg/kg, 12 hours). For the same compound, in the assay on Pah^enu2 mice (50 mg/kg, 3 hours after dosing), the “plasma Phe lower than predose baseline” value came out at 45%. Also, in the assay on Pah^enu2 mice (50 mg/kg, 12 hours), the “plasma Phe decrease from baseline” value came to 34%. Further, the “reduction in plasma Phe vs predose” value with Pah^enu2 mice (250 mg/kg, 3 hours) stood at 54%; with Pah^enu2 mice (250 mg/kg, 12 hours), 61%. In the assay with Pah^enu2 mice (plasma exposures with target coverage above the IC75), the “lowering of plasma Phe” value is over 40%.

Consider `NC(=O)N1CCC[C@@H](N(C(=O)NCc2ccc(OC(F)(F)F)cc2F)C2CC2)C1` [JNT-517], for which the “SLC1A5 transport (Fig S2 curve point)” value in the assay on human SLC1A5 (0.0160037 uM) was 77.6 and 89.2; in the assay on human SLC1A5 (0.048011 uM), 105 and 120; in the assay on human SLC1A5 (0.144033 uM), 112 and 122; with human SLC1A5 (0.432099 uM), 125 and 131; in the assay with human SLC1A5 (1.2963 uM) it was 122 and 116; in the assay with human SLC1A5 (3.88889 uM), 125 and 121. The “SLC1A5 transport (Fig S2 curve point)” value in the assay with human SLC1A5 (11.6667 uM) was 117 and 115; with human SLC1A5 (35 uM), 110 and 117. Moreover, the “inhibition of SLC1A5” value in the assay with human SLC1A5 (concentrations up to 35 μM) is “did not inhibit”.
